From patent US9573954B2, “Pyrazolopyrimidine compounds” (University Health Network, priority 2012, dated 2017)
Like-named read-outs stand apart in the source and are kept apart here.

Tests used:
[1] = tested on: breast cancer cells (MDA-MB-468); test: Cancer cell line growth inhibition, Sulforhodamine B assay, MDA-MB-468; assay type: cell-based; conditions: read-out: Cancer Cell Line GI50 Range MDA-MB-468
Description: (§1) Breast cancer cells (MDA-MB-231 and MDA-MB-468), colon cancer cells (HCT116) and ovarian cancer cells (PA-1 and OVCAR-3) were seeded (1000 to 4000 in 80 μl per well depending on the cell growth rate) into 96 well plates 24 hours before compound overlay. Compounds were prepared as 10 mM stock solutions in 100% DMSO which were diluted with DMEM (Dulbecco's Modified Eagle's Medium) cell growth Medium (Invitrogen, Burlington, ON, Canada) containing 10% FBS (Fetal Bovine Serum) to concentrations ranging from 50 nM to 250 μM. Aliquots (20 μl) from each concentration were overlaid to 80 μl of the pre-seeded cells in the 96 well plates to make final concentrations of 10 nM to 50 μM. The cells were cultured for 5 days before the Sulforhodamine B assay (SRB) was performed to determine the compound's cell growth inhibition activity.
(§2) Sulforhodamine B (purchased from Sigma, Oakville, ON, Canada) is a water-soluble dye that binds to the basic amino acids of the cellular proteins. Thus, colorimetric measurement of the bound dye provides an estimate of the total protein mass that is related to the cell number. the cells are fixed in situ by gently aspirating off the culture media and adding 50 μl ice cold 10% Trichloroacetic Acid (TCA) per well and incubate at 4° C. for 30-60 min, The plates are washed with H2O five times and allowed to air dry for 5 min. Addition of 50 μl 0.4% (w/v) SRB solution in 1% (v/v) acetic acid to each well and incubation for 30 min at RT completes the staining reaction. Following staining, plates are washed four times with 1% acetic acid to remove unbound dye and then allowed to air dry for 5 min. The stain is solubilized with 100 μl of 10 mM Tris pH 10.5 per well. Absorbance is read at 570 nm.
(§3) The percentage (%) of relative growth inhibition was calculated by comparing to DMSO treated only cells (100%). GI50's were determined for compounds with cytotoxic activity. The GI50 was calculated using GraphPad PRISM software (GraphPad Software, Inc., San Diego, Calif., USA).
(§4) In Table 1 below, GI50 value ranges for compound examples against breast cancer cell lines (MDA-MB-468), colon cancer cell lines (HCT116) and ovarian cancer cell lines (PA-1) are given.
(§5) In Table 3 below, GI50 value ranges for compound examples against breast cancer cell lines (MDA-MB-468), colon cancer cell lines (HCT116) and ovarian cancer cell lines (OVCAR-3) are given.

human TTK = biological target: T1, human TTK (Homo sapiens, UniProt P33981); test: TTK inhibition assay (indirect ELISA); assay type: biochemical; conditions: 100 μM ATP; read-out: TTK IC50 Range
T1 construct: Active TTK was purchased from Invitrogen as an amino terminal GST fusion of full length human TTK; purchased Invitrogen
T1 sequence (P33981 1-857): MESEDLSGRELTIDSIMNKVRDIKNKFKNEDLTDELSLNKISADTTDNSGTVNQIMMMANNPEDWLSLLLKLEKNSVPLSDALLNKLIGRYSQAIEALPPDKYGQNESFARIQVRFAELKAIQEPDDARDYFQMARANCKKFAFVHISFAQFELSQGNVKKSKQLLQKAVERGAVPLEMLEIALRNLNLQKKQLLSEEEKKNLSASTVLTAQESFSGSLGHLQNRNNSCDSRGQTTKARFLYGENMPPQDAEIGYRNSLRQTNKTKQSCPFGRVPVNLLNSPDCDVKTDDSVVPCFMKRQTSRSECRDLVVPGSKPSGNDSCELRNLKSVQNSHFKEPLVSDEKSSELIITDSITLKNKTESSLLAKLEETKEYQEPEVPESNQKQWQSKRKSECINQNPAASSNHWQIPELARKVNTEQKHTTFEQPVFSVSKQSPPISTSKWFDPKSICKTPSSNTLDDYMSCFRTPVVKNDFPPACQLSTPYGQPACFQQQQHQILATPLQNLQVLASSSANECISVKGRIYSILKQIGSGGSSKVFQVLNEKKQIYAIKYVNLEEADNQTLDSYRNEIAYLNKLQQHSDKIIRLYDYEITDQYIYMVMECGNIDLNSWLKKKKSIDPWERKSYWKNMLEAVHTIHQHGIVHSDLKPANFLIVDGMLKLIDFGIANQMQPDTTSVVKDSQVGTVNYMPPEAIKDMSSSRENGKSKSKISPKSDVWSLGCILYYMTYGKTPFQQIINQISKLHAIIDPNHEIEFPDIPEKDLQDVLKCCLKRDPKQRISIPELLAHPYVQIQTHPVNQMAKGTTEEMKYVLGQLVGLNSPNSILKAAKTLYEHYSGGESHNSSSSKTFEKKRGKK
Description: Active TTK was purchased from Invitrogen as an amino terminal GST fusion of full length human TTK.
TTK activity was measured using an indirect ELISA detection system.
Compounds were pre-incubated in the presence of enzyme for 5 minutes prior to addition of ATP and the activity remaining quantified using the above described activity assay. The % Inhibition of a compound was determined using the following formula; % Inhibition=100×(1−(experimental value−background value)/(high activity control−background value)). The IC50 value was determined using a non-linear 4 point logistic curve fit (XLfit4, IDBS) with the formula; (A+(B/(1+((x/C)^D)))), where A=background value, B=range, C=inflection point, D=curve fit parameter.

[2] = tested on: ovarian cancer cells (OVCAR-3); test: Cancer cell line growth inhibition, Sulforhodamine B assay, OVCAR-3; assay type: cell-based; conditions: read-out: Cancer Cell Line GI50 Range OVCAR-3
Description: as §1, §2, §3, §5

[3] = tested on: colon cancer cells (HCT116); test: Cancer cell line growth inhibition, Sulforhodamine B assay, HCT116; assay type: cell-based; conditions: read-out: Cancer Cell Line GI50 Range HCT116
Description: as §1, §2, §3, §4
In Table 2 below, GI50 value ranges for compound examples against breast cancer cell lines (MDA-MB-231), colon cancer cell lines (HCT116) and ovarian cancer cell lines (PA-1) are given.
as §5

[4] = Homo sapiens, MDA-MB-468, MDA-MB-468 breast cancer cell line
[5] = Homo sapiens, OVCAR-3, OVCAR-3 ovarian cancer cell line
[6] = Homo sapiens, HCT-116, HCT116 colon cancer cell line
[7] = MDA-MB-468 breast cancer cell line
[8] = OVCAR-3 ovarian cancer cell line

| Compound | GI50 [1, 4] | IC50 (human TTK) | GI50 [2, 5] | GI50 [3, 6] | GI50 [1, 7] | GI50 [2, 8] | GI50 ([3]; HCT116 colon cancer cell line) |
| --- | --- | --- | --- | --- | --- | --- | --- |
| O=C(NC1CC1)c1ccc(-c2cnn3c(NCCN4CCOCC4)cc(Oc4cccc(F)c4)nc23)cc1Cl [Example C34] | ≤ 0.1 µM | < 0.1 µM | ≤ 0.1 µM | ≤ 0.1 µM | – | – | – |
| Cc1cc(-c2cnn3c(NC[C@H]4CCOC4)cc(N[C@H]4CCCC[C@H]4O)nc23)ccc1C(=O)NC1CC1 [Example C35, N-cyclopropyl-4-(5-(((1S,2R)-2-hydroxycyclohexyl)amino)-7-((((R)-tetrahydrofuran-3-yl)methyl)amino)pyrazolo[1,5-a]pyrimidin-3-yl)-2-methylbenzamide] | ≤ 0.1 µM | < 0.1 µM | ≤ 0.1 µM | ≤ 0.1 µM | – | – | – |
| Cc1cc(-c2cnn3c(NC[C@@H]4CCOC4)cc(N[C@H]4CCCC[C@H]4O)nc23)ccc1C(=O)NC1CC1 [Example C36, N-cyclopropyl-4-(5-(((1S,2R)-2-hydroxycyclohexyl)amino)-7-((((S)-tetrahydrofuran-3-yl)methyl)amino)pyrazolo[1,5-a]pyrimidin-3-yl)-2-methylbenzamide] | ≤ 0.1 µM | < 0.1 µM | ≤ 0.1 µM | ≤ 0.1 µM | – | – | – |
| Cc1cc(-c2cnn3c(NC[C@H]4C[C@@](C)(O)C4)cc(NC4CCCC4)nc23)ccc1C(=O)NC1CC1 [Example C44, 4-(5-(cyclopentylamino)-7-((((1s,3s)-3-hydroxy-3-methylcyclobutyl)methyl)amino)pyr-azolo[1,5-a]pyrimidin-3-yl)-N-cyclopropyl-2-methylbenzamide] | ≤ 0.1 µM | < 0.1 µM | ≤ 0.1 µM | ≤ 0.1 µM | – | – | – |
| Cc1cc(-c2cnn3c(NCCN4CCC(F)CC4)cc(Oc4cccc(F)c4F)nc23)ccc1C(=O)NC1CC1 [Example C47, N-cyclopropyl-4-(5-(2,3-difluorophenoxy)-7-((2-(4-fluoropiperidin-1-yl)ethyl)amino)pyrazolo[1,5-a]pyrimidin-3-yl)-2-methylbenzamide] | ≤ 0.1 µM | < 0.1 µM | ≤ 0.1 µM | ≤ 0.1 µM | – | – | – |
| Cc1cc(-c2cnn3c(NCc4cccnc4)cc(NC4CCOCC4)nc23)ccc1C(=O)NC1CC1 [Example C49] | 0.1 to 0.5 µM | < 0.1 µM | 0.1 to 0.5 µM | 0.1 to 0.5 µM | – | – | – |
| Cc1cc(-c2cnn3c(NCCN4CCOCC4)cc(Oc4cccnc4)nc23)ccc1C(=O)NC1CC1 [Example C51] | 0.1 to 0.5 µM | < 0.1 µM | 0.1 to 0.5 µM | 0.1 to 0.5 µM | – | – | – |
| Cc1cc(-c2cnn3c(NCc4cccnc4)cc(OC4CCOCC4)nc23)ccc1C(=O)NC1CC1 [Example C52] | 0.1 to 0.5 µM | < 0.1 µM | > 0.5 µM | 0.1 to 0.5 µM | – | – | – |
| Cc1cc(-c2cnn3c(NCc4ccncc4)cc(NC4CCOCC4)nc23)ccc1C(=O)NC1CC1 [Example C54] | – | < 0.1 µM | – | – | 0.1 to 0.5 µM | 0.1 to 0.5 µM | 0.1 to 0.5 µM |
| Cc1cc(-c2cnn3c(NCC4CCOCC4)cc(Oc4cncc(F)c4)nc23)ccc1C(=O)NC1CC1 [Example C56] | ≤ 0.1 µM | < 0.1 µM | ≤ 0.1 µM | ≤ 0.1 µM | – | – | – |
| Cc1cc(-c2cnn3c(NCC4CCOCC4)cc(NCC4CCOCC4)nc23)ccc1C(=O)NC1CC1 [Example C57] | 0.1 to 0.5 µM | < 0.1 µM | 0.1 to 0.5 µM | 0.1 to 0.5 µM | – | – | – |
| Cc1cc(-c2cnn3c(NCC4CCOCC4)cc(N(C)C4CCCC4)nc23)ccc1C(=O)NC1CC1 [Example C58] | 0.1 to 0.5 µM | < 0.1 µM | 0.1 to 0.5 µM | ≤ 0.1 µM | – | – | – |
| Cc1cc(-c2cnn3c(NCC4CCOCC4)cc(Nc4cccnc4)nc23)ccc1C(=O)NC1CC1 [Example C59] | 0.1 to 0.5 µM | < 0.1 µM | 0.1 to 0.5 µM | 0.1 to 0.5 µM | – | – | – |
| Cc1cc(-c2cnn3c(NCCCn4ccnc4)cc(Oc4ccccc4)nc23)ccc1C(=O)NC1CC1 [Example C61] | ≤ 0.1 µM | < 0.1 µM | ≤ 0.1 µM | ≤ 0.1 µM | – | – | – |
| Cc1cc(-c2cnn3c(NC[C@H]4CCCO4)cc(NC4CCCC4)nc23)ccc1C(=O)NC1CC1 [Example C62] | 0.1 to 0.5 µM | < 0.1 µM | 0.1 to 0.5 µM | 0.1 to 0.5 µM | – | – | – |
| Cc1cc(-c2cnn3c(NCC4CCOCC4)cc(N4C5CCC4CC(O)C5)nc23)ccc1C(=O)NC1CC1 (stereo not drawn) [Example C66] | 0.1 to 0.5 µM | < 0.1 µM | 0.1 to 0.5 µM | 0.1 to 0.5 µM | – | – | – |
| Cc1cc(-c2cnn3c(NCC4CCOCC4)cc(NCC4COC4)nc23)ccc1C(=O)NC1CC1 [Example C71] | 0.1 to 0.5 µM | < 0.1 µM | > 0.5 µM | 0.1 to 0.5 µM | – | – | – |
| Cc1cc(-c2cnn3c(NC[C@H]4CCCO4)cc(NC4CCCC4)nc23)ccc1C(=O)NC1CC1 [Example C72] | – | < 0.1 µM | – | – | ≤ 0.1 µM | 0.1 to 0.5 µM | ≤ 0.1 µM |
| Cc1cc(-c2cnn3c(NCC4CCOCC4)cc(NCc4cccnc4)nc23)ccc1C(=O)NC1CC1 [Example C74] | 0.1 to 0.5 µM | < 0.1 µM | > 0.5 µM | 0.1 to 0.5 µM | – | – | – |
| Cc1cc(-c2cnn3c(NCCN4CCOCC4)cc(NC4CCCC4)nc23)ccc1C(=O)NC1CC1 [Example C77] | 0.1 to 0.5 µM | < 0.1 µM | 0.1 to 0.5 µM | 0.1 to 0.5 µM | – | – | – |
| Cc1cc(-c2cnn3c(NCC4CCOCC4)cc(N[C@H](CO)C(C)(C)C)nc23)ccc1C(=O)NC1CC1 [Example C78] | 0.1 to 0.5 µM | < 0.1 µM | 0.1 to 0.5 µM | 0.1 to 0.5 µM | – | – | – |
| Cc1cc(-c2cnn3c(NCC4CCOCC4)cc(N[C@H]4COCC[C@@H]4O)nc23)ccc1C(=O)NC1CC1 [Example C79] | > 0.5 µM | < 0.1 µM | > 0.5 µM | > 0.5 µM | – | – | – |
| Cc1cc(-c2cnn3c(NCC4CCOCC4)cc(N[C@@H]4CCCOC4)nc23)ccc1C(=O)NC1CC1 [Example C82] | 0.1 to 0.5 µM | < 0.1 µM | 0.1 to 0.5 µM | 0.1 to 0.5 µM | – | – | – |
| Cc1cc(-c2cnn3c(NCC4CCOCC4)cc(N[C@H]4CCCOC4)nc23)ccc1C(=O)NC1CC1 [Example C83] | 0.1 to 0.5 µM | < 0.1 µM | 0.1 to 0.5 µM | ≤ 0.1 µM | – | – | – |
